Article PMC6539584, “Mosquito Acetylcholinesterase as a Target for Novel Phenyl-Substituted Carbamates” (International Journal of Environmental Research and Public …, 2019)

Target: T1, hAChE (Homo sapiens, UniProt P22303)
T1 construct: gene ACHE; commercial recombinant human enzyme (Sigma-Aldrich)
T1 sequence (P22303 32-614): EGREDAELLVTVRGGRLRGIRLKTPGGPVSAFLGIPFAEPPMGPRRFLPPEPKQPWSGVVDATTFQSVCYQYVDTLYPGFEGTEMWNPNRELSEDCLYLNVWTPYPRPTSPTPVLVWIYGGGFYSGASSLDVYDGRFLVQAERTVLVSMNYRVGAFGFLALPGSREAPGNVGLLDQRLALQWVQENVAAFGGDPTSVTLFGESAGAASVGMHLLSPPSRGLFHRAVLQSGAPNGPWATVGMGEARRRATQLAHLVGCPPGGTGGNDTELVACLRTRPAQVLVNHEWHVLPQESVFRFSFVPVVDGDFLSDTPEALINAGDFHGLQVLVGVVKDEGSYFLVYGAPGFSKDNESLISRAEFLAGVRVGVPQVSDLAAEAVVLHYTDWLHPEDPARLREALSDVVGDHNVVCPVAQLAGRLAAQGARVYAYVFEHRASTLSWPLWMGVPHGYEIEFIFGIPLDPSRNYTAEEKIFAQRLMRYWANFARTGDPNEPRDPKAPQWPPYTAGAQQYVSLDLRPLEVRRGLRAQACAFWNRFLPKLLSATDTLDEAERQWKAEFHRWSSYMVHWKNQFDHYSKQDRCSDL
Test: Ellman assay, 96-well, […] nm
Assay type: biochemical
Settings: acetylthiocholine, pH 7.8, 10 min pre-incubation, 0.1% DMSO; covalent; read-out: hAChE IC50 ^a; cited from earlier work
In the case of CNC(=O)Oc1cccc([Si](C)(C)C)c1 [3a], the IC50 is given as 490 nM.
For CC[Si](C)(C)c1cccc(OC(=O)NC)c1 [4a], the IC50 is given as 630 nM.

Same assay, conditions: read-out: hAChE IC50 ^a; acetylthiocholine, pH 7.8, 10 min pre-incubation, 0.1% DMSO; covalent; cited from earlier work
For CCC(CC)CSc1ccccc1OC(=O)NC [5a], the IC50 is listed as 5000 nM.

Same assay, conditions: read-out: hAChE ^aIC50; acetylthiocholine, pH 7.8, 10 min pre-incubation, 0.1% DMSO; covalent; cited from earlier work
In the case of CNC(=O)Oc1cccc(C(C)(C)C)c1 [1a, 3-tert-butylphenyl methylcarbamate], the IC50 is listed as 320 nM.

Target: not listed separately
Test: Ellman assay, 96-well, […] nm
Assay type: biochemical, Homo sapiens
Settings: read-out: AgAChE, IC50, ^a nM
In the case of CNC(=O)Oc1cccc(C(F)(F)F)c1 [2a, 3-(trifluoromethyl)phenyl methylcarbamate], the IC50 is reported as over 100000 nM.

Target: T1, hAChE
Test: Ellman assay, 96-well, […] nm
Assay type: biochemical
Settings: not given
CNC(=O)Oc1ccc(Br)c(C(C)(C)C)c1 [1b, 4-bromo-3-(tert-butyl)phenyl methylcarbamate] gave an IC50 of 1200 nM.
In the case of CNC(=O)Oc1cc(C(C)(C)C)ccc1Br [1d, 2-bromo-5-(tert-butyl)phenyl methylcarbamate], the IC50 is reported as 48 nM.
CNC(=O)Oc1cc(C(C)(C)C)ccc1I [1e, 5-(tert-butyl)-2-iodophenyl methylcarbamate] gave an IC50 of 640 nM.
CCCCCCc1ccc(C(C)(C)C)cc1OC(=O)NC [1f, 5-(tert-butyl)-2-hexylphenyl methylcarbamate] gave an IC50 of 6300 nM.
Molecule C=CCNC(=O)c1ccc(OC(=O)NC)cc1C(C)(C)C [1h, 4-(allylcarbamoyl)-3-(tert-butyl)phenyl methylcarbamate] has an IC50 of 2800 nM.
Work on CNC(=O)Oc1ccc(C(=O)NC)c(C(C)(C)C)c1 [1i, 3-(tert-butyl)-4-(methylcarbamoyl)phenyl methylcarbamate] yielded an IC50 of over 100000 nM.
CNC(=O)Oc1ccc(C(=O)NCC(C)C)c(C(C)(C)C)c1 [1j, 3-(tert-butyl)-4-(isobutylcarbamoyl)phenyl methylcarbamate] gave an IC50 of over 100000 nM.
With CCN(CC)C(=O)c1ccc(OC(=O)NC)cc1C(C)(C)C [1k, 3-(tert-butyl)-4-(diethylcarbamoyl)phenyl methylcarbamate] the IC50 was 2300 nM.
With CNC(=O)Oc1cc(C(C)(C)C)ccc1SC [1m, 5-(tert-butyl)-2-(methylthio)phenyl methylcarbamate] the IC50 was 640 nM.
CNC(=O)Oc1cc(C(C)(C)C)ccc1SCC(C)C [1n, 5-(tert-butyl)-2-(isobutylthio)phenyl methylcarbamate] showed an IC50 of 4700 nM.
For CNC(=O)Oc1cc(C(C)(C)C)ccc1SC(C)C [1o, 5-(tert-butyl)-2-(isopropylthio)phenyl methylcarbamate], the IC50 was 2200 nM.
Work on CNC(=O)Oc1ccc(C)c([Si](C)(C)C)c1 [3c, 4-methyl-3-(trimethylsilyl)phenyl methylcarbamate] yielded an IC50 of 2400 nM.
CNC(=O)Oc1cc(F)cc([Si](C)(C)C)c1 [3g, 3-fluoro-5-(trimethylsilyl)phenyl methylcarbamate] showed an IC50 of 4200 nM.
In the case of CC[Si](C)(C)c1cc(OC(=O)NC)ccc1C [4c, 3-(ethyldimethylsilyl)-4-methylphenyl methylcarbamate], the IC50 is reported as 1400 nM.
For CC[Si](C)(C)c1cc(F)cc(OC(=O)NC)c1 [4g, 3-(ethyldimethylsilyl)-5-fluorophenyl methylcarbamate], the IC50 was 1900 nM.
For CCCSc1ccccc1OC(=O)NC [6a, 2-(propylthio)phenyl methylcarbamate], the IC50 was 2300 nM.

Same assay, conditions: acetylthiocholine, pH 7.8, 10 min pre-incubation, 0.1% DMSO; covalent; read-out: hAChE ^aIC50
“3-(tert-butyl)-4-(ethyl(methyl)carbamoyl)phenyl methylcarbamate [1l]” gave an IC50 of 5500 nM.
